≈ marks a conversion by molar mass, not a printed value. Where “and” joins values, the source holds several entries; their conditions need not be identical. Equal values may be shown once. A value given as a limit tells only on which side of the number the result lay.

The subject of assay [1] is C. difficile ATCC 9689. As to the kind of experiment: MIC, CLSI agar dilution. Format: cell-based, Clostridium difficile. The note with it: for MIC: Clostridioides difficile, different lots of media. An excerpt:
(§1) Laboratory strains of Clostridium difficile 9689, 700057, 43255, 17857 and Eubacterium lentum 43055 were obtained from American Type Culture Collection (ATCC). […] Broth dilution is not a validated method for MIC testing of Clostridium; however, due to potential inaccuracy of measuring the pH of solid agar after equilibration inside the anaerobic chamber, both methods were used and compared for the assessment of pH effects. […] Even with strong buffering, the pH shifted slightly following equilibration in the anaerobic gas, and thus in some cases media was titered in ambient air to above the desired anaerobic pH. The actual pH was always confirmed following equilibration inside the anaerobic chamber. […] The level of divalent cations in the Brucella broth as acquired from the manufacturer were determined by the Laboratory Specialists, Inc.
(In agar dilution the substance is mixed into plates at graded concentrations.)

In a further assay the test system is C. difficile (17857). Description: MIC, CLSI agar dilution, different lots of media. It counts as cell-based, Clostridium difficile. Conditions: Clostridioides difficile. From the text:
(§2) Laboratory strains of Clostridium difficile 9689, 700057, 43255, 17857 and Eubacterium lentum 43055 were obtained from American Type Culture Collection (ATCC). […] Broth dilution is not a validated method for MIC testing of Clostridium; however, due to potential inaccuracy of measuring the pH of solid agar after equilibration inside the anaerobic chamber, both methods were used and compared for the assessment of pH effects.

The next assay concerns C. difficile (43255). Description: MIC, CLSI agar dilution, different lots of media. Conditions: for MIC: Clostridioides difficile. Format: cell-based, Clostridium difficile.
Excerpt: as §2

Assay [2] relates to Eubacterium lentum (43055). As to the kind of experiment: MIC, CLSI agar dilution, different lots of media (QC organism). It counts as cell-based. Conditions: Eggerthella lenta.
Excerpt: as §2

Assay [3] is described as follows: Fold increase in MIC relative to tiacumicin B (API mixture profile table). Format: cell-based.
Assay [4] relates to C. difficile strains. Description: MIC, agar dilution, statements for C. difficile strains together. It counts as cell-based, Clostridium difficile.
Excerpt: as §1

The test system of assay [5] is C. difficile ATCC 700057. Description: MIC, CLSI agar dilution. It counts as cell-based, Clostridium difficile.
Excerpt: as §1

Assay [6] deals with C. difficile ATCC 9689. Description: MIC, broth microdilution (pH effect). Format: cell-based, Clostridium difficile. Conditions: in µg/mL. In general terms: Dilution methods test growth across graded concentrations, often in twofold steps.
The subject of assay [7] is C. difficile ATCC 700057. Description: MIC, broth microdilution (pH effect). Conditions: in µg/mL. Format: cell-based, Clostridium difficile.
Assay [8] deals with C. difficile strains. Description: MIC, broth microdilution, statements for both C. difficile strains. It counts as cell-based, Clostridium difficile. The note with it: all three experiments.
The test system of a further assay is C. difficile. Description: Quantitative stool cultures of Phase 2A patients, C. difficile counts. Format: in vivo, human. The note with it: all patients except one receiving 50 mg; 50, 100 or 200 mg twice daily for 10 days (vancomycin 125 mg qid).
A further assay has as its system Bacteroides group. As to the kind of experiment: Quantitative stool cultures of Phase 2A patients, Bacteroides group counts. It counts as in vivo, human.
Setting [9] is: anaerobic pH 7, 100 mM NaH2PO4, pH 7.2 (Air).
Where [10] appears, read: anaerobic pH 6.7, 10 mM NaH2PO4 pH 7.0 (air).
[11] abbreviates: anaerobic pH 6.8, 100 mM NaH2PO4 pH 7.0 (Air).
The mark [12] stands for this setting: anaerobic pH 7.2, 10 mM MOPS pH 8.0 (Air).
Setting [13] is: anaerobic pH 7.5, 100 mM MOPS pH 8.0 (Air).
Setting [14] is: anaerobic pH 7.6, 10 mM TAPS pH 9.0 (Air).
The mark [15] stands for this setting: anaerobic pH 8, 100 mM TAPS pH 9.0 (Air).
[16] abbreviates: anaerobic pH 8.1, 100 mM TAPS pH 9.5 (Air).
[17] abbreviates: strongly buffered series, anaerobic pH 6, pH 6.0 (Air).
The mark [18] stands for this setting: unbuffered media, anaerobic pH 5.9.
Setting [19] is: unbuffered media, anaerobic pH 6.6.
[20] abbreviates: unbuffered media, anaerobic pH 7.1.
The mark [21] stands for this setting: unbuffered media, anaerobic pH 7.5.
The mark [22] stands for this setting: weakly buffered series, anaerobic pH 6, pH 6.0 (Air).

`CCC[C@@H]1C[C@@H](C(=O)N[C@@H]([C@H]2O[C@H](SC)[C@H](O)[C@@H](O)[C@H]2O)[C@H](C)Cl)N(C)C1` [Clindamycin, clindamycin]: the MIC against C. difficile ATCC 9689 [1] (ATCC9689, 24 h, Day 1) stood at 4 µg/mL (≈ 9.41 µM); with C. difficile ATCC 9689 [1] (ATCC9689, 48 h, Day 2), 4 µg/mL (≈ 9.41 µM); against C. difficile ATCC 9689 [1] (ATCC9689, 72 h, Day 3), 4 µg/mL (≈ 9.41 µM); with C. difficile (17857) (24 h, Day 1), 4 µg/mL (≈ 9.41 µM); in the assay on C. difficile (17857) (48 h, Day 2), 2 µg/mL (≈ 4.71 µM); with C. difficile (17857) (72 h, Day 3), 4 µg/mL (≈ 9.41 µM). The MIC came to 8 µg/mL (≈ 18.8 µM) with C. difficile (43255) (24 h, Day 1); 4 µg/mL (≈ 9.41 µM) against C. difficile (43255) (48 h, Day 2); 8 µg/mL (≈ 18.8 µM) in the assay with C. difficile (43255) (72 h, Day 3); 0.25 µg/mL (≈ 0.588 µM) in assay [2] (24 h, Day 1); 0.25 µg/mL (≈ 0.588 µM) in [2] (48 h, Day 2); 0.125 µg/mL (≈ 0.294 µM) in [2] (72 h, Day 3). The MIC values in the assay with C. difficile (43255) (Day 2) was 8 µg/mL (≈ 18.8 µM).
`CCC(=O)OC1C(O)C(O)C(OC2/C(C)=C/C(C)=C/CC(C(C)O)OC(=O)/C(COC3OC(C)C(OC(=O)c4c(O)c(Cl)c(O)c(Cl)c4CC)C(O)C3OC)=C/C=C/CC(O)/C(C)=C/C2CC)OC1(C)C` (centres unmarked) [OP-1417]: in assay [3], the “fold increased in MIC relative to tiacumicn B” value is on record as 2-4x.
Same read-out and setting: the result for `CCc1c(Cl)c(O)c(Cl)c(O)c1C(=O)OC1C(C)OC(OC/C2=C\C=C\CC(O)/C(C)=C/C(CC)C(OC3OC(C)(C)C(OC(C)=O)C(O)C3O)/C(C)=C/C(C)=C/CC(C(C)O)OC2=O)C(OC)C1O` (centres unmarked) [OP-1416] reads 2-4x; that for `CCc1c(Cl)c(O)c(Cl)c(O)c1C(=O)OC1C(C)OC(OC/C2=C/C=C/CC(O)/C(C)=C/C(CC)C(OC3OC(C)(C)C(O)C(OC(=O)C(C)C)C3O)/C(C)=C/C(C)=C/CC(C(C)O)OC2=O)C(OC)C1O` (centres unmarked) [OP-1431, tiacumicin F], 8x.
As to `CCc1c(Cl)c(O)c(Cl)c(O)c1C(=O)O[C@H]1[C@H](O)[C@H](OC)[C@H](OC/C2=C\C=C\C[C@H](O)/C(C)=C/[C@H](CC)[C@@H](O[C@@H]3OC(C)(C)[C@@H](OC(=O)C(C)C)[C@H](O)[C@@H]3O)/C(C)=C/C(C)=C/C[C@@H](C(C)O)OC2=O)O[C@@H]1C` (some centres unmarked) [OP-1441, tiacumicin B], the “fold increased in MIC relative to tiacumicn B” value in assay [3] is reported as 1x.
Consider `Cc1ncc([N+](=O)[O-])n1CCO` [Metronidazole, metronidazole], for which the MIC in [2] (24 h, Day 1) turned out to be 1 µg/mL (≈ 5.84 µM); in [2] (48 h, Day 2), 0.25 µg/mL (≈ 1.46 µM); in assay [2] (72 h, Day 3) it was 1 µg/mL (≈ 5.84 µM). Further, the “MIC values range in our laboratory” value with C. difficile strains [4] (control vs. C. difficile strains) was 0.25 to 0.5 µg/mL.
`CCC1/C=C(\C)C(O)C/C=C/C=C(\COC2OC(C)C(OC(=O)c3c(C)c(Cl)c(O)c(Cl)c3O)C(O)C2OC)C(=O)CC(C(C)O)C/C=C(C)/C=C(\C)C1OC1OC(C)(C)C(OC(=O)C(C)C)C(O)C1O` (centres unmarked) [OP-1405, lipiarmycin A4]: in assay [3], the “fold increased in MIC relative to tiacumicn B” value is listed as 1-4x.
Still for that read-out and setting: the result for `CCc1c(Cl)c(O)c(Cl)c(O)c1C(=O)OC1C(C)OC(OC/C2=C\C=C\CC(O)/C(C)=C/C(CC)C(OC3OC(C)(C)C(OC(=O)CC(C)C)C(O)C3O)/C(C)=C/C(C)=C/CC(C(C)O)OC2=O)C(OC)C1O` (centres unmarked) [OP-1437] reads 2x.
On to `CN[C@H](CC(C)C)C(=O)N[C@H]1C(=O)N[C@@H](CC(N)=O)C(=O)N[C@H]2C(=O)N[C@H]3C(=O)N[C@H](C(=O)N[C@H](C(=O)O)c4cc(O)cc(O)c4-c4cc3ccc4O)[C@H](O)c3ccc(c(Cl)c3)Oc3cc2cc(c3O[C@@H]2O[C@H](CO)[C@@H](O)[C@H](O)[C@H]2O[C@H]2C[C@](C)(N)[C@H](O)[C@H](C)O2)Oc2ccc(cc2Cl)[C@H]1O` [Vancomycin, vancomycin], for which the “In vitro activity (MIC)” value with C. difficile ATCC 700057 [5] (agar dilution, inoculum density 1.48 × 10^8 cfu/ml, 1.48 × 10^5) was determined as 2 µg/mL. In addition, the “agar dilution MIC” value is 4 with C. difficile ATCC 700057 [5] (setting [9]); 2 (pH 6.7) in the assay on C. difficile ATCC 700057 [5] (pH 6.7, unbuffered column); 4 with C. difficile ATCC 9689 [1] (setting [9]); 1 (pH 6.7) in the assay on C. difficile ATCC 9689 [1] (pH 6.7, unbuffered column). Further, the MIC against C. difficile ATCC 9689 [6] (setting [10]) was 1; with C. difficile ATCC 9689 [6] (setting [11]) it was 1 and 2; against C. difficile ATCC 9689 [6] (setting [12]), 2; in the assay with C. difficile ATCC 9689 [6] (setting [13]), 4; against C. difficile ATCC 9689 [6] (setting [14]), 4; against C. difficile ATCC 9689 [6] (setting [15]) it was greater than 8. Also, the MIC against C. difficile ATCC 9689 [6] (setting [16]) is greater than 8; in the assay with C. difficile ATCC 9689 [6] (setting [17]), 1 and 0.5; with C. difficile ATCC 9689 [6] (setting [18]), 0.5 and 1; in the assay with C. difficile ATCC 9689 [6] (setting [19]), 0.5 and 1; against C. difficile ATCC 9689 [6] (setting [20]) it was 2; against C. difficile ATCC 9689 [6] (setting [21]) it was 4. Also, the MIC against C. difficile ATCC 9689 [6] (setting [22]) is reported as 0.5; against C. difficile ATCC 700057 [7] (setting [10]) it was 1; in the assay on C. difficile ATCC 700057 [7] (setting [11]), 2; against C. difficile ATCC 700057 [7] (setting [12]) it was 2; in the assay with C. difficile ATCC 700057 [7] (setting [13]) it was 4; with C. difficile ATCC 700057 [7] (setting [14]) it was 4. Besides, the MIC with C. difficile ATCC 700057 [7] (setting [15]) is 8; against C. difficile ATCC 700057 [7] (setting [16]), 8; with C. difficile ATCC 700057 [7] (setting [17]) it was 1; against C. difficile ATCC 700057 [7] (setting [18]), 0.5; with C. difficile ATCC 700057 [7] (setting [19]), 1; against C. difficile ATCC 700057 [7] (setting [20]), 1 and 2. Besides, the MIC was 2 and 4 with C. difficile ATCC 700057 [7] (setting [21]); 0.5 against C. difficile ATCC 700057 [7] (setting [22]). The “Effect of inoculum density on MIC” value in the assay with C. difficile strains [4] (10^5-10^8 cfu/ml (10^2-10^5 CFU/spot), ATCC 9689 and ATCC 700057, highest over lowest inoculum density) is on record as “fourfold increase in MIC”. The “MIC at highest pH treatment relative to lowest pH treatment” value against C. difficile strains [8] is reported as 4-8 fold. In the assay with C. difficile, the “C. difficile quantitative counts at day 10” value was “similarly effective”. In the assay on Bacteroides group (125 mg qid for 10 days), the “Effect on Bacteroides counts during therapy” value is listed as “severely impairs Bacteroides counts”. Besides, in the assay with Bacteroides group (Day 0, 125 mg qid (n = 7)), the “Bacteroides group counts/gm feces wet weight, mean ± SD” value is 7.39 ± 2.67 log10 CFU.
As for `CCc1c(Cl)c(O)c(Cl)c(O)c1C(=O)OC1C(C)OC(OC/C2=C/C=C/CC(O)/C(C)=C/C(CC)C(OC3OC(C)(C)C(O)C(O)C3OC(=O)C(C)C)/C(C)=C/C(C)=C/CC(C(C)O)OC2=O)C(OC)C1O` (centres unmarked) [OP-1432, tiacumicin C], the “fold increased in MIC relative to tiacumicn B” value in assay [3] is 8-16x.
On the same count and under the same terms, in the case of `CCc1c(Cl)c(O)c(Cl)c(O)c1C(=O)OC1C(C)OC(OC/C2=C\C=C\CC(O)/C(C)=C/C(CC)C(OC3OC(C)(C)C(OC(=O)C(C)C)C(O)C3O)/C(C)=C/C(C)=C/CC(C(C)=O)OC2=O)C(OC)C1O` (centres unmarked) [OP-1402] it was 2-4x; in that of `CCC1CC=C(C)C=C(C)C(OC2OC(C)(C)C(OC(C)=O)C(O)C2O)C(CC)C=C(C)C(O)CC=CC=C(C)C(=O)O1` (centres unmarked) [OP-1434, tiacumicin A], greater than 32x.

Values taken from patent US20140107054A1, “Method of treating clostridium difficile-associated diarrhea” (priority 2006, published 2014).
